The subject of one assay is AsPC-1 cells. The assay is described as follows: Non-anchorage-dependent cell growth inhibition (spheroid 3D culture), AsPC-1. Format: cell-based. As to conditions: Homo sapiens, ASPC1, 144 h; KRAS G12D mutant-positive, 3D spheroid, six days, CellTiter-Glo 2.0; read-out: AsPC-1 IC50. Here is the method: (§1) Test Example 3: Evaluation of Non-Anchorage-Dependent Cell Growth Inhibitory Activity on Human KRAS G12V Mutant-Positive Pancreatic Cancer Line PA-TU-8902, Human KRAS G12D Mutant-Positive Pancreatic Cancer Line AsPC-1 or Human KRAS G12C Mutant-Positive Pancreatic Cancer Line MIA PaCa-2
(§2) The non-anchorage-dependent cell growth inhibitory activities of subject compounds were evaluated by spheroid 3D cell culture.
(§3) PA-TU-8902 cells, AsPC-1 cells or MIA PaCa-2 cells (RIKEN BRC, RCB2094) were seeded at 36 µL/well on a low-cell-adhesive round bottom 384-well plate (Prime Surface: from Sumitomo Bakelite) to give 5×10^2 cells per well. The PA-TU-8902 cells were under the same conditions as in Test Example 1-1, and the AsPC-1 cells were under the same conditions as in Test Example 1-2. For the MIA PaCa-2 cells, RPMI-1640 medium containing 10% fetal bovine serum was used in the presence of 5% CO2 at 37° C.
(§4) The next day, the subject compounds (6-9 points having final concentrations in the range of 3 μM to 0.3 nM) and DMSO, which was the solvent for the subject compounds, as a negative control were diluted 100-fold with a fresh medium and were each added at 4 μL per well. After culturing in the presence of 5% CO2 at 37° C. for six days, CellTiter-Glo 2.0 (from Promega) was added at 20 μL per well. After stirring with a plate mixer (from FINEPCR) at normal temperature for an hour, the luminescent signals were measured with ARVO X3 (from PerkinElmer).
(§5) With the signaling value in treatment with DMSO taken as 0% inhibition and with the signaling value in the medium alone without cells taken as 100% inhibition, the 50% inhibition values (IC50) were calculated by Sigmoid-Emax model nonlinear regression analysis.
(In general: ATP-based viability assays read luminescence as a measure of living cells.)

Another assay deals with MIA PaCa-2 cells. The assay is described as follows: Non-anchorage-dependent cell growth inhibition (spheroid 3D culture), MIA PaCa-2. In kind it is cell-based. As to conditions: Homo sapiens, MIA PaCa-2, 144 h; KRAS G12C mutant-positive, 3D spheroid, six days, CellTiter-Glo 2.0; read-out: MIA PaCa-2 IC50. As for the experimental part:
as §1, §2, §3, §4, §5

The next assay has as its target T1, RAS G12V (Homo sapiens, UniProt P01116, G12V).
T1 construct: host or cells: PA-TU-8902 human pancreatic cancer cells
The assay can be described thus: RAS G12V degradation activity, Cell ELISA, PA-TU-8902. As to conditions: PA-TU-8902 cells, 24 hours, 100% = Example compound 17 at 1 μM; read-out: DC50 (RAS G12V 50% degradation value). In kind it is cell-based. As for the experimental part: Test Example 1-1: Evaluation of RAS G12V Degradation Activity on Human KRAS G12V Mutant-Positive Pancreatic Cancer Line PA-TU-8902
The RAS G12V degradation activities of subject compounds were evaluated by measuring the expression levels of RAS G12V by a Cell ELISA method.
PA-TU-8902 cells (DSMZ, ACC 179) were seeded at 36 μL per well on a 384-well plate (from Greiner bio-one) to give 1.5×10^4 cells per well. As for the cell culture conditions, DMEM medium (from Sigma-Aldrich) containing 10% fetal bovine serum (from Cytiva) was used in the presence of 5% CO2 at 37° C.
The next day, the subject compounds (10 points having final concentrations in the range of 3 μM to 0.1 nM), Example compound 17 of a final concentration of 1 μM as a positive control and dimethyl sulfoxide (DMSO), which was the solvent for the subject compounds, as a negative control were diluted 100-fold with a fresh medium and were each added at 4 μL per well, followed by culturing for 24 hours.
The next day, the culture supernatant was removed, and a 4% paraformaldehyde phosphate buffer solution (from FUJIFILM Wako) was added at 20 μL per well. The plate was allowed to stand for 30 minutes at room temperature to thus immobilize the cells. Then, the supernatant was removed, and 0.1% Triton X-100 (from Amersham Biosciences)-containing Phosphate buffered saline (PBS) was added at 20 μL per well. After allowing the plate to stand at room temperature for 10 minutes, the supernatant was removed, and the wells were washed twice in total by adding PBS at 25 μL per well and removing the supernatant. The washing operations below were performed in the same manner. Next, the supernatant was removed, and 0.5% sodium dodecyl sulfate (SDS; from ThermoFisher Scientific)-containing PBS was added at 20 μL per well. After allowing the plate to stand at room temperature for 10 minutes, the plate was centrifuged to remove the supernatant. After washing with PBS, the supernatant was removed by centrifugation, and a blocking solution (PVDF Blocking Reagent for Can Get Signal; from TOYOBO) was added at 20 μL per well. After allowing the plate to stand for 30 minutes at room temperature, the supernatant was removed by centrifugation, and a solution obtained by diluting an anti-Ras (G12V Mutant Specific) antibody (Ras (G12V Mutant Specific) (D2H12) Rabbit mAb; from Cell Signaling Technology; 500-fold dilution) and an anti-3-actin antibody (Anti-beta Actin antibody; from Abcam; 5,000-fold dilution) with Can Get Signal Solution 2 (from TOYOBO) was added at 15 μL per well as primary antibodies. The plate was allowed to stand overnight at 4° C.
The next day, the supernatant was removed by centrifugation, and the plate was washed with PBS. The supernatant was removed by centrifugation, and a solution obtained by diluting an anti-rabbit IgG antibody (IRDye 800CW Goat anti-Rabbit IgG; from LI-COR Biosciences) and an anti-mouse IgG antibody (IRDye 680RD Donkey anti-Mouse IgG; from LI-COR Biosciences) 1,000-fold with Can Get Signal Solution 2 was added at 15 μL per well as secondary antibodies. After allowing the plate to stand at room temperature for an hour, the supernatant was removed by centrifugation, and the plate was washed with PBS. After removing the supernatant, the plate was dried as it was with air at room temperature for two hours or more, and the 700-nm and 800-nm fluorescent signals were measured with Aerius (from LI-COR Biosciences).
With the RAS G12V signaling value at the time of addition of DMSO corrected with the signaling value of 3-actin taken as 0% and with the RAS G12V signaling value at the time of addition of Example compound 17 of a final concentration of 1 μM taken as 100%, the RAS G12V degradation rates were calculated. The 50% degradation values (DC50) were calculated by Sigmoid-Emax model nonlinear regression analysis.
Background: An ELISA detects its analyte on a solid surface through an enzyme-linked reagent.

The subject of a further assay is PA-TU-8902 cells. The assay is described as follows: Non-anchorage-dependent cell growth inhibition (spheroid 3D culture), PA-TU-8902. As to conditions: Homo sapiens, PaTu 8902, 144 h; KRAS G12V mutant-positive, 3D spheroid, six days, CellTiter-Glo 2.0; read-out: PA-TU-8902 IC50. Format: cell-based, human. The method, boiled down:
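Human pancreatic lines (PA-TU-8902 KRAS G12V, AsPC-1 G12D, MIA PaCa-2 G12C) grown as spheroids at 5×10^2 cells/well in low-adhesion round-bottom plates; MIA PaCa-2 in RPMI-1640 with 10% FBS. Compounds added next day (6-9 points, 3 μM to 0.3 nM final) for six days at 37 °C, 5% CO2. CellTiter-Glo luminescence, IC50 by Sigmoid-Emax regression versus DMSO and cell-free controls.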

Broadly, the IC50 is the concentration that gives 50% inhibition. In general, DC50 refers to the midpoint of the concentration-degradation curve.

T1 sequence (P01116 1-188 isoform P01116-2 G12V): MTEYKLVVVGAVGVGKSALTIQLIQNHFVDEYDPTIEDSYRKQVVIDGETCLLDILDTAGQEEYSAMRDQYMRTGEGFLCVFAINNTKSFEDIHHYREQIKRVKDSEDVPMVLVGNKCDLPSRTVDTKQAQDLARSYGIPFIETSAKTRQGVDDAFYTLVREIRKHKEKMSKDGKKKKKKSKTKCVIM

For the compound `CO[C@@H](C)COc1cc(OC2CN(C(=O)NCCN(C)C)C2)c2cc(C3CC3)c(-c3c(C)c(F)cc4[nH]ncc34)c(OCc3ccc(-c4cn([C@H](C(=O)N5C[C@H](O)C[C@H]5C(=O)N[C@@H](CO)c5ccc(-n6cncn6)cc5)C(C)C)nn4)cc3)c2n1` (atropisomer, axis not shown; (M)) [Example 12, (4R)-1-[(2S)-2-(4-{4-[({(7M)-6-cyclopropyl-4-[(1-{[2-(dimethylamino)ethyl]carbamoyl}azetidin-3-yl)oxy]-7-(6-fluoro-5-methyl-1H-indazol-4-yl)-2-[(2S)-2-methoxypropoxy]quinolin-8-yl}oxy)methyl]phenyl}-1H-1,2,3-triazol-1-yl)-3-methylbutanoyl]-4-hydroxy-N-{(1R)-2-hydroxy-1-[4-(1H-1,2,4-triazol-1-yl)phenyl]ethyl}-L-prolinamide], the IC50 with AsPC-1 cells came out at 17 nM; with MIA PaCa-2 cells, 20 nM; in the assay with PA-TU-8902 cells it was 36 nM. On RAS G12V, the 50% degradation concentration (DC50) worked out at 37 nM.

Consider `CO[C@@H](C)COc1cc(OC2CN(C(=O)O[C@H]3C[C@@H](N(C)C)C3)C2)c2cc(C3CC3)c(-c3c(C)c(F)cc4[nH]ncc34)c(OCc3ccc(-c4cn([C@H](C(=O)N5C[C@H](O)C[C@H]5C(=O)N[C@@H](CO)c5ccc(-n6cncn6)cc5)C(C)C)nn4)cc3)c2n1` (atropisomer, axis not shown; (M)) [Example 13, (1s,3R)-3-(dimethylamino)cyclobutyl 3-({(7M)-6-cyclopropyl-7-(6-fluoro-5-methyl-1H-indazol-4-yl)-8-{[4-(1-{(2S)-1-[(2S,4R)-4-hydroxy-2-({(1R)-2-hydroxy-1-[4-(1H-1,2,4-triazol-1-yl)phenyl]ethyl}carbamoyl)pyrrolidin-1-yl]-3-methyl-1-oxobutan-2-yl}-1H-1,2,3-triazol-4-yl)phenyl]methoxy}-2-[(2S)-2-methoxypropoxy]quinolin-4-yl}oxy)azetidine-1-carboxylate], for which the results for the IC50 with AsPC-1 cells, with MIA PaCa-2 cells and in the assay on PA-TU-8902 cells were 18 nM, 13 nM and 36 nM, respectively. In addition, on RAS G12V, the DC50 was found to be 11 nM.

Regarding `CO[C@@H](C)COc1cc(OC2CN(C(=O)N3CC(CN(C)C)C3)C2)c2cc(C3CC3)c(-c3c(C)c(F)cc4[nH]ncc34)c(OCc3ccc(-c4cn([C@H](C(=O)N5C[C@H](O)C[C@H]5C(=O)N[C@@H](CO)c5ccc(-c6scnc6C)cc5)C(C)C)nn4)cc3)c2n1` (atropisomer, axis not shown; (M)) [Example 14, (4R)-1-[(2S)-2-(4-{4-[({(7M)-6-cyclopropyl-4-[(1-{3-[(dimethylamino)methyl]azetidine-1-carbonyl}azetidin-3-yl)oxy]-7-(6-fluoro-5-methyl-1H-indazol-4-yl)-2-[(2S)-2-methoxypropoxy]quinolin-8-yl}oxy)methyl]phenyl}-1H-1,2,3-triazol-1-yl)-3-methylbutanoyl]-4-hydroxy-N-{(1R)-2-hydroxy-1-[4-(4-methyl-1,3-thiazol-5-yl)phenyl]ethyl}-L-prolinamide], the values for the concentration for half-maximal inhibition (IC50) with AsPC-1 cells, in the assay on MIA PaCa-2 cells and with PA-TU-8902 cells were 19 nM, 10 nM and 47 nM, respectively. Besides, the DC50 on RAS G12V was 10 nM.

On to `CO[C@@H](C)COc1cc(OC2CN(C(=O)CCCN(C)C)C2)c2cc(C3CC3)c(-c3c(C)c(F)cc4[nH]ncc34)c(OCc3ccc(-c4cn([C@H](C(=O)N5C[C@H](O)C[C@H]5C(=O)N[C@@H](CO)c5ccc(-n6cncn6)cc5)C(C)C)nn4)cc3)c2n1` (atropisomer, axis not shown; (M)) [Example 41, (4R)-1-[(2S)-2-(4-{4-[({(7M)-6-cyclopropyl-4-({1-[4-(dimethylamino)butanoyl]azetidin-3-yl}oxy)-7-(6-fluoro-5-methyl-1H-indazol-4-yl)-2-[(2S)-2-methoxypropoxy]quinolin-8-yl}oxy)methyl]phenyl}-1H-1,2,3-triazol-1-yl)-3-methylbutanoyl]-4-hydroxy-N-{(1R)-2-hydroxy-1-[4-(1H-1,2,4-triazol-1-yl)phenyl]ethyl}-L-prolinamide], for which the 50% inhibitory concentration (IC50) with AsPC-1 cells was found to be 29 nM; with MIA PaCa-2 cells it was 23 nM; with PA-TU-8902 cells, 52 nM. Further, the half-maximal degradation concentration (DC50) on RAS G12V is 30 nM.

As for `Cc1ncsc1-c1ccc([C@H](CO)NC(=O)[C@@H]2C[C@@H](O)CN2C(=O)[C@H](C(C)C)n2cc(-c3ccc(COc4c(-c5c(C)c(F)cc6[nH]ncc56)c(C5CC5)cc5c(NC6CN(c7ncccn7)C6)nc(OC6CCOCC6)nc45)cc3)nn2)cc1` [Example 15, (4R)-1-[(2S)-2-{4-[4-({[(7M)-6-cyclopropyl-7-(6-fluoro-5-methyl-1H-indazol-4-yl)-2-[(oxan-4-yl)oxy]-4-{[1-(pyrimidin-2-yl)azetidin-3-yl]amino}quinazolin-8-yl]oxy}methyl)phenyl]-1H-1,2,3-triazol-1-yl}-3-methylbutanoyl]-4-hydroxy-N-{(1R)-2-hydroxy-1-[4-(4-methyl-1,3-thiazol-5-yl)phenyl]ethyl}-L-prolinamide], the 50% inhibitory concentration (IC50) in the assay on AsPC-1 cells came to 126 nM; with MIA PaCa-2 cells it was 6 nM; in the assay on PA-TU-8902 cells it was 161 nM. Moreover, the DC50 on RAS G12V was found to be 89 nM.

As to `Cc1ncsc1-c1ccc([C@H](CO)NC(=O)[C@@H]2C[C@@H](O)CN2C(=O)[C@H](C(C)C)n2cc(-c3ccc(COc4c(-c5c(C)c(F)cc6[nH]ncc56)c(C5CC5)cc5c(NCc6cccnc6)nc(OC6CCOCC6)nc45)cc3)nn2)cc1` [Example 29], the half-inhibitory concentration (IC50) in the assay on AsPC-1 cells was found to be 25 nM; with MIA PaCa-2 cells, 5 nM; in the assay with PA-TU-8902 cells it was 63 nM. Moreover, the 50% degradation concentration (DC50) at RAS G12V is 8 nM.
